Data taken from patent US20100004330A1, “ANTI-OXIDATIVE CONTENT MATERIAL USED IN DRINK AND FOOD MANUFACTURING METHOD” (priority 2008, published 2010).

Key:
tissue factor = settings: added into micro-emulsion; 0.5, 2 and 10 μmol/L; P<0.01; cited from earlier work
[1] = antioxidant activity testing (DPPH scavenging activity); assay type: biochemical; settings: corresponds to ppm VitE
Excerpt: According to the present invention, the products of the Beta-carotene, lutein, lycopene, and of mixture of these three (in 0.5:4:4 optimal weight ratio) from the Allied Biochemical Industrial Co., Ltd were sent to “Food Industrial Research And Development Institute” (331 Shih-Pin Road, Hsinchu, 300 Taiwan) for antioxidant activity testing (DPPH scavenging activity).

[2] = tested on: thiobarbituric acid-reactive substances (TBARS), lipid peroxidation; settings: single carotenoid; Control (no antioxidants) 100 ± 9; cited from earlier work
macular degeneration = settings: person ingesting 6 mg per day; cited from earlier work
myocardial infarction = settings: contrast of the 10th and 90th percentiles of carotenoid level in adipose tissue; cited from earlier work
cardiovascular disease = settings: middle-aged or elderly; cited from earlier work

SMILES | tissue factor activity (tissue factor) | Scavenging rate/g [1] | TBARS (%) measured [2] [%] | lower risk for macular degeneration (macular degeneration) [%] | odds ratio, myocardial infarction (myocardial infarction) | reduction of the risk of cardiovascular disease (cardiovascular disease) [%]
CC1=C[C@H](O)CC(C)(C)[C@H]1/C=C/C(C)=C/C=C/C(C)=C/C=C/C=C(C)/C=C/C=C(C)/C=C/C1=C(C)C[C@@H](O)CC1(C)C [Lutein] | suppress tissue factor activity | correspond to 7.69 × 10^2 ppm VitE | 77 ± 9 | 43 | – | –
CC(C)=CCC/C(C)=C/C=C/C(C)=C/C=C/C(C)=C/C=C/C=C(C)/C=C/C=C(C)/C=C/C=C(\C)CCC=C(C)C [Lycopene] | suppress tissue factor activity | correspond to 2.35 × 10^4 ppm VitE | 25 ± 10 | – | 0.52 | –
CC1=C(/C=C/C(C)=C/C=C/C(C)=C/C=C/C=C(C)/C=C/C=C(C)/C=C/C2=C(C)CCCC2(C)C)C(C)(C)CCC1 [β-carotene] | suppress tissue factor activity | correspond to 7.08 × 10^3 ppm VitE | 73 ± 9 | – | – | 45
